Test system: monkeys trained to discriminate cocaine (0.40 mg/kg) from saline
Test: Cocaine drug discrimination (substitution protocol) in rhesus monkeys
Assay type: in vivo, rhesus monkeys (Macaca mulatta)
Conditions: 0.40 mg/kg cocaine i.m.; training days preceding test days
Text: Subjects: The subjects were four male rhesus monkeys (Macaca mulatta) each weighing 7.0-8.0 kg. Each monkey was maintained on a diet of 7-12 monkey biscuits (Purina Monkey Chow Jumbo #5037) and one piece of fresh fruit per day. During the week, all food was delivered after the experimental session, whereas on weekends, food was delivered between 9 a.m. and noon. Water was freely available at all times. The room in which the monkeys were housed was maintained on a 12-hr light/dark cycle, with lights on from 7 a.m. to 7 p.m.
Apparatus: Each monkey was housed individually in a well-ventilated, stainless steel chamber (56×71×69 cm). The home cages of all monkeys were modified to include an operant panel (28×28 cm) mounted on the front wall. Three square translucent response keys (6.4×6.4 cm) were arranged 2.54 cm apart in a horizontal row 3.2 cm from the top of the operant panel. Each key could be transilluminated by red or green stimulus lights (Superbright LED'S). In addition, the operant panel supported an externally mounted pellet dispenser (Gerbrands, Model G53 10, Arlington, Mass.) that delivered 1 gm fruit-flavored food pellets (Precision Primate Pellets Formula L/I Banana Flavor, P. J. Noyes Co., Lancaster, N.H.) to a food receptacle mounted on the cage beneath the operant response panel. Operation of the operant panels and data collection were accomplished with IBM-compatible computers and interface systems (MedAssociates; St. Albans, Vt.) located in a separate room.
Discrimination Training: Discrimination training was conducted 5 days per week during daily sessions composed of multiple cycles. Each cycle consisted of a 15-min time-out period followed by a 5-min response period. During the time-out, all stimulus lights were off, and responding had no scheduled consequences. During the response period, the right and left response keys were transilluminated red or green, and monkeys could earn up to 10 food pellets by responding under a FR 30 schedule of food presentation. For all four monkeys in this study, the left key was illuminated green, and the right key was illuminated red. The center key was not illuminated at any time, and responding on the center key had no scheduled consequences. If all available food pellets were delivered before the end of the 5-min response period, the stimulus lights transilluminating the response keys were turned off, and responding had no scheduled consequences for the remainder of the 5-min period.
On training days, monkeys were given an i.m. injection of either saline or 0.40 mg/kg cocaine 5-min after the beginning of each time-out period (i.e., 10 min before the response period). Following the administration of saline, responding on only the green key (the saline-appropriate key) produced food, whereas following administration of 0.40 mg/kg cocaine, only responding on the red key (the drug-appropriate key) produced food. Responses on the inappropriate key reset the FR requirement on the appropriate key. Sessions consisted of 1 to 5 cycles, and if the training dose of cocaine was administered, it was administered only during the last cycle. Thus, training days consisted of 0 to 5 saline cycles followed by 0 to 1 drug cycles.
During each response period, 3 dependent variables were determined using the following equations.
1) Percent injection-appropriate responding prior to delivery of the first reinforcer.
2) Percent injection-appropriate responding for the entire response period.
Monkeys were considered to have acquired cocaine discrimination when the following three criteria were met for 7 of 8 consecutive training sessions: 1) the percent injection-appropriate responding prior to delivery of the first reinforcer was greater than or equal to 80% for all cycles; 2) the percent injection-appropriate responding for the entire cycle was greater than or equal to 90% for all cycles; 3) response rates during saline training cycles were greater than 0.5 responses per second. […]

Q: For COC(=O)[C@H]1[C@@H](OC(=O)c2ccccc2)C[C@@H]2CC[C@H]1N2C [cocaine, reference compound], which “Mean response rate during drug training cycles” value is on record?
A: 2.58 (±0.67) responses/sec

— patent US8232315B2, “Methods for treating drug addiction and improving addiction-related behavior” (SK Biopharmaceuticals Co., Ltd., priority 2009, dated 2012)
